Experimental data: patent EP4772497A1, “POLYMORPHS OF NITROGEN-CONTAINING HETEROCYCLIC COMPOUNDS, AND USES THEREOF” (BNH Research Co., Ltd., priority 2023, dated 2025)

Assays:
Format in all cases: in vivo
[1] = tested on: C57BL/6J mice; assay: TC synaptic potency and GABA/AMPA ratio in the barrel cortex after oral administration; conditions: 8-week-old C57BL/6J mice, 1 mg/kg orally, barrel cortex (layer 4)
Protocol: Following oral administration of crystalline form C, the efficacy of the compound was evaluated by measuring the potency and the GABA/AMPA ratio in the barrel cortex.
Crystalline form C was orally administered at a dose of 1 mg/kg to 8-week-old C57BL/6J mice. For the control group, 200 µL of a mixed solution of DMSO (10):PEG400 (44):saline (55) was orally administered as a vehicle. Experiments were performed on five mice each for the control (vehicle) group and the compound-treated group.

[2] = tested on: IL-33; assay: Mouse proteome profiling array analysis of somatosensory cortex homogenates; conditions: APP/PS1 mice, 1 mg/kg orally for 14 days, cerebral cortex, vs vehicle-treated control group
Protocol: (§1) To evaluate the efficacy of crystalline form C of the present disclosure in inhibiting amyloid-beta protein accumulation, mouse proteomic profiling array analysis and Bielschowsky silver staining were performed. 15-week-old APP/PS1 mice were used in the experiment, and crystalline form C of the present disclosure (1 mg/kg of BnH-015B) or a vehicle was administered orally.
(§2) Relative levels of mouse cytokines, chemokines, and growth factors were determined using a membrane-based antibody array kit (Proteome Profiler Mouse XL Cytokine Array Kit, ARY028 R&D Systems, Inc., Minneapolis, USA) which features 111 capture antibodies coated in duplicate on a nitrocellulose membrane. Homogenates of the somatosensory cortex of APP/PS1 mice were prepared and tested according to the manufacturer's instructions. The array was detected using an X-ray film (Super RX, Fujifilm, Tokyo, Japan), and the film was read using an Epson scanner (L655 series, Epson, Suwa, Japan), followed by image analysis using ImageJ with the Protein Array Analyzer Macro (National Institutes of Health, Bethesda, MD, USA). […]
(§3) Statistical analysis was performed using GraphPad Prism 9.5.0 software (San Diego, CA, USA). […] All data are expressed as mean ± SEM.

[3] = tested on: OPN; assay: as above; conditions: APP/PS1 mice, 1 mg/kg orally for 14 days, cerebral cortex, vs vehicle-treated control group
Protocol: as §1, §2, §3

With `C[C@@H]1CC[C@H](C(=O)O)CN1C(=O)Cc1ccc(F)cc1Cl` [Crystalline form C, (3S,6R)-1-(2-(2-chloro-4-fluorophenyl)acetyl)-6-methylpiperidine-3-carboxylic acid] the TC synaptic potency [1] was “increase TC synaptic potency”, the “balance of excitation/inhibition (GABA/AMPA ratio)” value [1] was “maintaining the balance of excitation/inhibition” and the “expression level of IL-33” value [2] was “significantly increased”. The OPN expression [3] was “suppressed”.
